Key:
Type in all cases: cell-based, mouse
[1] = test system: EC d6 (endothelial-like cells); test: RT-qPCR mRNA expression; details: for Cdkn1a mRNA / Cdkn2a mRNA / Glb1 mRNA / Il6 mRNA / Il8 mRNA / Tp53 mRNA: Fig 7C
Experimental: Total RNA was purified using the RNeasy Mini Kit (Qiagen, Hilden, Germany). Reverse transcriptase (RT) reaction was performed with the HighCapacity cDNA Reverse Transcription Kit (Applied Biosystems, Darmstadt, Germany) using 900–2000 ng of RNA. Quantitative RT-qPCR analysis was performed using following conditions: (1) 95 °C–10 min; (2) 45 amplification cycles with 95 °C–15 s, 55 °C–15 s, and 72 °C–17 s; (3) 95 °C–1 min, 55 °C–1 min, 65 °C–5 s. If not stated otherwise, analyses were performed in technical triplicates using pooled samples from two independent experiments (each performed with biological duplicates) by use of a CFX96 cycler (BioRad) and the SensiMix SYBR Kit (Bioline, London, UK). The primers used for mRNA expression analyses are listed in Supplementary Table 1. To ensure the specificity of the amplification product, melting curves were recorded at the end of the run. mRNA expression levels were normalized to β-Actin and Gapdh. Relative mRNA expression in mESC or corresponding untreated controls was set to 1.0. Only changes in gene expression of ≤ 0.5- and ≥ 2-fold were considered as biologically relevant.

EC d4 [2] = test: ZO1 tight junction immunofluorescence; details: EC d4 treated 48 h
[3] = test system: EC d4 (endothelial progenitor cells); test: Western blot protein expression (densitometry); details: EC d4 48 h; for CHK1 protein / RAD51 protein / gH2AX protein / p-CHK2 protein / p-KAP1 protein / p-RPA32 protein / p-p53 protein: Fig 5D
In short: (§1)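 Whole-cell RIPA extracts (probe sonication) quantified by DC assay; 20 µg protein resolved by SDS-PAGE, blotted to nitrocellulose. Blocked 1 h RT in 5% milk or BSA/TBST; primary antibodies 1:500–5000 overnight 4 °C, peroxidase secondary 1:2000 2 h RT. Chemiluminescent bands imaged, levels by densitometry.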

[4] = test system: EC d6 (endothelial-like cells); test: Western blot protein expression (densitometry); details: EC d6 24 h; for CHK1 protein / RAD51 protein / gH2AX protein / p-CHK2 protein / p-KAP1 protein / p-RPA32 protein / p-p53 protein: Fig 5D
In short: as §1

mESC = test: Western blot protein expression (densitometry); details: mESC 24 h
In short: as §1

EC d4 [5] = test: EdU incorporation (S-phase activity); details: EC d4 48 h
Experimental: S-phase activity of cells was monitored by measuring EdU incorporation using the EdU-Click 488 assay according to the manufacturer’s protocol. Briefly, cells were pulse-treated with 5-ethynyl-2′-deoxyuridine (EdU) for 3 h. Alexa Fluor 488-conjugated reaction cocktail was added (30 min, RT) and nuclei were counterstained with DAPI. The percentage of EdU-positive area/DAPI-positive area was calculated by fluorescence microscopy (Olympus BX43, 20x objective).

[6] = EC d6 + 10 µM 24 h + 24 h post incubation
[7] = EC d6 + 20 µM 24 h + 24 h post incubation
[8] = concentration 1 (Dox 1/B02 1/EST 1)
[9] = concentration 2 (Dox 2/B02 2/EST 2)
[10] = Fig 5D, concentration 1 (Dox 1/B02 1/EST 1)
[11] = Fig 5D, concentration 2 (Dox 2/B02 2/EST 2)

With `Nc1ccccc1NC(=O)c1ccc(CNC(=O)OCc2cccnc2)cc1` [EST, entinostat] as the compound, how does the “Cdkn1a mRNA” value [1, 6] read?
The value was 1.91 Fold of untreated control.

What about the “Cdkn2a mRNA” value [1, 6] of the same compound?
Its value is 1.85 Fold of untreated control.

What about the “Glb1 mRNA” value [1, 6] of the same compound?
Its value is 3.60 Fold of untreated control.

And the “Il6 mRNA” value [1, 6]?
The value was 1.19 Fold of untreated control.

And the “Il8 mRNA” value [1, 6]?
Its value is 0.24 Fold of untreated control.

What about the “Tp53 mRNA” value [1, 6] of the same compound?
The value was 0.82 Fold of untreated control.

What about the “Cdkn1a mRNA” value [1, 7] of the same compound?
The value was 2.49 Fold of untreated control.

What about the “Cdkn2a mRNA” value [1, 7] of the same compound?
Its value is 2.02 Fold of untreated control.

What about the “Glb1 mRNA” value [1, 7] of the same compound?
The value was 5.40 Fold of untreated control.

What about the “Il6 mRNA” value [1, 7] of the same compound?
Its value is 2.47 Fold of untreated control.

What about the “Il8 mRNA” value [1, 7] of the same compound?
Its value is 0.48 Fold of untreated control.

What about the “Tp53 mRNA” value [1, 7] of the same compound?
Its value is 0.96 Fold of untreated control.

And the “Brca1 mRNA” value ([1]; EC d6 + 20 µM 24 h, Fig 5C)?
The value was 0.19 Fold of mESC.

What about the “Chk1 mRNA” value ([1]; EC d6 + 20 µM 24 h, Fig 5C) of the same compound?
The value was 0.44 Fold of mESC.

And the “Rad51 mRNA” value ([1]; EC d6 + 20 µM 24 h, Fig 5C)?
The value was 0.11 Fold of mESC.

What about the “Pgc1a mRNA” value ([1]; EC d6 + 20 µM 24 h, Fig 6D) of the same compound?
Its value is 5.75 Fold of untreated control.

What about the “Cldn5 mRNA” value ([1]; EC d6 + 20 µM 24 h, Fig 8C) of the same compound?
Its value is 2.16 Fold of EC d4 or d6.

And the “Ocln mRNA” value ([1]; EC d6 + 20 µM 24 h, Fig 8C)?
Its value is 1.62 Fold of EC d4 or d6.

And the “Tjp1 mRNA” value ([1]; EC d6 + 20 µM 24 h, Fig 8C)?
Its value is 1.46 Fold of EC d4 or d6.

What about the “ZO1 containing tight junctions in EC d6 differentiated from treated EC d4” value (EC d4 [2]) of the same compound?
The value was “did not affect”.

And the H3ac protein ([3]; Fig 1D)?
The H3ac protein was 4.6 Fold of mESC.

What about the H4ac protein ([3]; Fig 1D) of the same compound?
The H4ac protein was 1853.2 Fold of mESC.

And the “aTubac (acetylated α-Tubulin) protein” value ([3]; Fig 1D)?
Its value is 0.9 Fold of mESC.

What about the CHK1 protein [3, 8] of the same compound?
Its CHK1 protein is 0.7 Fold of mESC.

And the RAD51 protein [3, 8]?
Its RAD51 protein is 1.0 Fold of mESC.

What about the gH2AX protein [3, 8] of the same compound?
The gH2AX protein was 9.1 Fold of mESC.

What about the p-CHK2 protein [3, 8] of the same compound?
Its p-CHK2 protein is 0.6 Fold of mESC.

What about the p-KAP1 protein [3, 8] of the same compound?
The p-KAP1 protein was 0.0 Fold of mESC.

And the p-RPA32 protein [3, 8]?
Its p-RPA32 protein is 0.8 Fold of mESC.

And the p-p53 protein [3, 8]?
Its p-p53 protein is 0.4 Fold of mESC.

What about the CHK1 protein [3, 9] of the same compound?
Its CHK1 protein is 1.0 Fold of mESC.

What about the RAD51 protein [3, 9] of the same compound?
Its RAD51 protein is 0.9 Fold of mESC.

What about the gH2AX protein [3, 9] of the same compound?
The gH2AX protein was 8.9 Fold of mESC.

What about the p-CHK2 protein [3, 9] of the same compound?
Its p-CHK2 protein is 0.9 Fold of mESC.

What about the p-KAP1 protein [3, 9] of the same compound?
Its p-KAP1 protein is 0.0 Fold of mESC.

What about the p-RPA32 protein [3, 9] of the same compound?
The p-RPA32 protein was 0.9 Fold of mESC.

And the p-p53 protein [3, 9]?
The p-p53 protein was 0.5 Fold of mESC.

What about the AMPKa protein ([3]; Fig 6E) of the same compound?
Its AMPKa protein is 0.5 Fold of mESC.

And the GSK3b protein ([3]; Fig 6E)?
Its GSK3b protein is 2.3 Fold of mESC.

And the p-p70SK protein ([3]; Fig 6E)?
Its p-p70SK protein is 1.6 Fold of mESC.

What about the H3ac protein ([4]; Fig 1D) of the same compound?
The H3ac protein was 7.8 Fold of mESC.

What about the H4ac protein ([4]; Fig 1D) of the same compound?
Its H4ac protein is 4083.7 Fold of mESC.

And the “aTubac (acetylated α-Tubulin) protein” value ([4]; Fig 1D)?
The value was 1.0 Fold of mESC.

And the CHK1 protein [4, 8]?
The CHK1 protein was 0.6 Fold of mESC.

And the RAD51 protein [4, 8]?
The RAD51 protein was 0.6 Fold of mESC.

What about the gH2AX protein [4, 8] of the same compound?
The gH2AX protein was 1.3 Fold of mESC.

And the p-CHK2 protein [4, 8]?
The p-CHK2 protein was 0.5 Fold of mESC.

What about the p-KAP1 protein [4, 8] of the same compound?
The p-KAP1 protein was 0.0 Fold of mESC.

What about the p-RPA32 protein [4, 8] of the same compound?
Its p-RPA32 protein is < 0.1 Fold of mESC.

And the p-p53 protein [4, 8]?
Its p-p53 protein is 0.3 Fold of mESC.

What about the CHK1 protein [4, 9] of the same compound?
Its CHK1 protein is 0.2 Fold of mESC.

And the RAD51 protein [4, 9]?
Its RAD51 protein is 0.1 Fold of mESC.

What about the gH2AX protein [4, 9] of the same compound?
Its gH2AX protein is 0.1 Fold of mESC.

And the p-CHK2 protein [4, 9]?
Its p-CHK2 protein is 0.3 Fold of mESC.

What about the p-KAP1 protein [4, 9] of the same compound?
Its p-KAP1 protein is 0.0 Fold of mESC.

And the p-RPA32 protein [4, 9]?
Its p-RPA32 protein is < 0.1 Fold of mESC.

And the p-p53 protein [4, 9]?
The p-p53 protein was 0.3 Fold of mESC.

What about the AMPKa protein ([4]; Fig 6E) of the same compound?
The AMPKa protein was 0.7 Fold of mESC.

What about the GSK3b protein ([4]; Fig 6E) of the same compound?
The GSK3b protein was 1.7 Fold of mESC.

And the p-p70SK protein ([4]; Fig 6E)?
The p-p70SK protein was 0.7 Fold of mESC.

What about the H3ac protein (mESC; Fig 1D) of the same compound?
Its H3ac protein is 16.6 Fold of mESC.

What about the H4ac protein (mESC; Fig 1D) of the same compound?
The H4ac protein was 7426.8 Fold of mESC.

What about the “aTubac (acetylated α-Tubulin) protein” value (mESC; Fig 1D) of the same compound?
The value was 1.0 Fold of mESC.

What about the CHK1 protein (mESC; Fig 4H, Eto, Dox 1, B02, EST) of the same compound?
The CHK1 protein was 1.0 Fold of mESC.

And the p-ATR protein (mESC; Fig 4H, Eto, Dox 1, B02, EST)?
The p-ATR protein was 2.9 Fold of mESC.

And the p-CHK1 protein (mESC; Fig 4H, Eto, Dox 1, B02, EST)?
Its p-CHK1 protein is 0.1 Fold of mESC.

And the p-RPA32 protein (mESC; Fig 4H, Eto, Dox 1, B02, EST)?
The p-RPA32 protein was 1.3 Fold of mESC.

And the p-p53 protein (mESC; Fig 4H, Eto, Dox 1, B02, EST)?
The p-p53 protein was 0.9 Fold of mESC.

What about the CHK1 protein (mESC; [10]) of the same compound?
Its CHK1 protein is 0.8 Fold of mESC.

And the RAD51 protein (mESC; [10])?
The RAD51 protein was 1.4 Fold of mESC.

And the gH2AX protein (mESC; [10])?
The gH2AX protein was 7.7 Fold of mESC.

And the p-CHK2 protein (mESC; [10])?
Its p-CHK2 protein is 1.0 Fold of mESC.

What about the p-KAP1 protein (mESC; [10]) of the same compound?
Its p-KAP1 protein is 2.9 Fold of mESC.

What about the p-RPA32 protein (mESC; [10]) of the same compound?
Its p-RPA32 protein is 0.7 Fold of mESC.

And the p-p53 protein (mESC; [10])?
Its p-p53 protein is 0.9 Fold of mESC.

And the CHK1 protein (mESC; [11])?
Its CHK1 protein is 0.7 Fold of mESC.

And the RAD51 protein (mESC; [11])?
Its RAD51 protein is 1.4 Fold of mESC.

And the gH2AX protein (mESC; [11])?
Its gH2AX protein is 10.1 Fold of mESC.

And the p-CHK2 protein (mESC; [11])?
Its p-CHK2 protein is 1.0 Fold of mESC.

What about the p-KAP1 protein (mESC; [11]) of the same compound?
The p-KAP1 protein was 8.2 Fold of mESC.

What about the p-RPA32 protein (mESC; [11]) of the same compound?
Its p-RPA32 protein is 0.7 Fold of mESC.

And the p-p53 protein (mESC; [11])?
Its p-p53 protein is 0.8 Fold of mESC.

And the AMPKa protein (mESC; Fig 6E)?
Its AMPKa protein is 0.5 Fold of mESC.

What about the GSK3b protein (mESC; Fig 6E) of the same compound?
Its GSK3b protein is 1.2 Fold of mESC.

And the p-p70SK protein (mESC; Fig 6E)?
Its p-p70SK protein is 0.8 Fold of mESC.

And the “S-phase activity (EdU-positive cells)” value (EC d4 [5])?
The value was “not”.

— publication PMC13308190, “Endothelial progenitor cell susceptibility to DNA damaging and DDR-modulating compounds determines endothelial differentiation accuracy” (Stem Cell Research & Therapy, 2026)
